Earlier results, collected in patent publication US20240165107A1 (Cipla Limited, priority 2021, published 2024).
Like-named read-outs stand apart in the source and are kept apart here.

How the values were obtained:
[1] = rats; immediate release cariprazine capsules
[2] = dogs; immediate release cariprazine capsules
[3] = target: 5-HT2B receptors (Homo sapiens, UniProt P41595); settings: antagonist
[4] = target: 5-HT2A receptors (Homo sapiens, UniProt P28223); settings: antagonist
[5] = target: T1, serotonin 5-HT2C receptors (Homo sapiens, UniProt P28335)
T1 sequence (P28335 33-458): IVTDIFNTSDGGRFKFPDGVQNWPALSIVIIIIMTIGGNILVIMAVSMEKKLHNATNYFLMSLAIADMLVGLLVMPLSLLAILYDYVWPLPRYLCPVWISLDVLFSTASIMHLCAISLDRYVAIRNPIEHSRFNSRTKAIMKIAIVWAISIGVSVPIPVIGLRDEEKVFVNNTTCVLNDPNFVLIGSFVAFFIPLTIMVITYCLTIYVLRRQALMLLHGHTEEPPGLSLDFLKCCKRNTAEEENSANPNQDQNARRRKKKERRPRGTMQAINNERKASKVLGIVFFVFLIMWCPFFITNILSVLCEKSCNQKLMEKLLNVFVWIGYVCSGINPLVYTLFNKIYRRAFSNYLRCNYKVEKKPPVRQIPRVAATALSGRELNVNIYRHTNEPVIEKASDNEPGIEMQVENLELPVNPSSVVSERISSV

[6] = target: T2, alA- adrenergic receptors (Homo sapiens, UniProt P35348)
T2 sequence (P35348 1-466): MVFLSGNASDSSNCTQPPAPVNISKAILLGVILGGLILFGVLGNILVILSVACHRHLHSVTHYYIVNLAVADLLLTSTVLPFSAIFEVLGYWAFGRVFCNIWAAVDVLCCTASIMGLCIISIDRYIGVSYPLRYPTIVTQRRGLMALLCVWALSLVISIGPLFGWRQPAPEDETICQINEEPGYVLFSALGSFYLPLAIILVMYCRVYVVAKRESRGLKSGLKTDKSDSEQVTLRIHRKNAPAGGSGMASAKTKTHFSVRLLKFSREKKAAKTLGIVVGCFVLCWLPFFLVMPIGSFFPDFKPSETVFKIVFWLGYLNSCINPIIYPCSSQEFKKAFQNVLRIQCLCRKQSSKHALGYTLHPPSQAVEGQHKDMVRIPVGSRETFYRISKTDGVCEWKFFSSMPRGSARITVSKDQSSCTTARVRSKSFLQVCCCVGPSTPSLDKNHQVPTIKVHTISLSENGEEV

[7] = system: cholinergic muscarinic receptors

Sequence of 5-HT2B receptors (P41595 whole entry): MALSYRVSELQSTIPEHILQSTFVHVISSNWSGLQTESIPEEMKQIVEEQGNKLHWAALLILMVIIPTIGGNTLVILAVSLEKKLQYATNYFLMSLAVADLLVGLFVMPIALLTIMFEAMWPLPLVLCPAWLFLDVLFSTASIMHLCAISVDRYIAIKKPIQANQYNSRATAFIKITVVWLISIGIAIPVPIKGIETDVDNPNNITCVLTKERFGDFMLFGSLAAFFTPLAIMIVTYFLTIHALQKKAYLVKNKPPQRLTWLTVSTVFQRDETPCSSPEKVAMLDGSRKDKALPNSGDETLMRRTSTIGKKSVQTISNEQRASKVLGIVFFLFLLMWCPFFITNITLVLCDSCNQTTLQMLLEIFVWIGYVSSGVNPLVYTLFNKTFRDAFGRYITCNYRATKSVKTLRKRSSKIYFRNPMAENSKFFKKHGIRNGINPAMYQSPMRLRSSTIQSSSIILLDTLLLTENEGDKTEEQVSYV
Sequence of 5-HT2A receptors (P28223 whole entry): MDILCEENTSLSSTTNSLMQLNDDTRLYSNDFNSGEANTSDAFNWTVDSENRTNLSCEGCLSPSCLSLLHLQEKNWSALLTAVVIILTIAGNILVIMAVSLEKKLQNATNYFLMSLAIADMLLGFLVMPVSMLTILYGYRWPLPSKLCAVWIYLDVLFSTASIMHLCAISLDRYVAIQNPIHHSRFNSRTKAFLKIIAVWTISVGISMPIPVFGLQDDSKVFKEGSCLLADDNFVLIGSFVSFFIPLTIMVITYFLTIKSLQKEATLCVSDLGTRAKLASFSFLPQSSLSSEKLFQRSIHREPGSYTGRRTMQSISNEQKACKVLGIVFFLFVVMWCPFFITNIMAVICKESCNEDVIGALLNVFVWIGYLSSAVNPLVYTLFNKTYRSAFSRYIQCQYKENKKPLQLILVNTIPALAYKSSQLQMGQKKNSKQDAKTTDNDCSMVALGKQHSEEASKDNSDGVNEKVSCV

oral absolute bioavailability [1]: 52-63%
oral absolute bioavailability [2]: 64-80%
binding affinity [3]: high
binding affinity [4]: moderate
binding affinity [5]: lower binding affinity
binding affinity [6]: lower binding affinity
affinity [7]: no appreciable affinity
SMILES: CN(C)C(=O)N[C@H]1CC[C@H](CCN2CCN(c3cccc(Cl)c3Cl)CC2)CC1 [Cariprazine, trans-N-{4-[2-[4-(2,3-dichlorophenyl)piperazine-1-yl]ethyl]cyclohexyl}-N′,N′-dimethylurea]
